pIC50: −log10 of the molar value.

In patent US20260184712A1, “Heterocyclic Compounds as ENT Inhibitors and Compounds for Use in the Treatment of Cancers” (iTeos Belgium SA, priority 2022, published 2026) one finds IC50 data, which are given here for 56 molecules.

One assay has as its target T1, human ENT1 (Homo sapiens, UniProt Q99808).
T1 construct: JAR cells expressing ENT1 were purchased from ATCC; host or cells: JAR cells
T1 sequence (Q99808 1-456): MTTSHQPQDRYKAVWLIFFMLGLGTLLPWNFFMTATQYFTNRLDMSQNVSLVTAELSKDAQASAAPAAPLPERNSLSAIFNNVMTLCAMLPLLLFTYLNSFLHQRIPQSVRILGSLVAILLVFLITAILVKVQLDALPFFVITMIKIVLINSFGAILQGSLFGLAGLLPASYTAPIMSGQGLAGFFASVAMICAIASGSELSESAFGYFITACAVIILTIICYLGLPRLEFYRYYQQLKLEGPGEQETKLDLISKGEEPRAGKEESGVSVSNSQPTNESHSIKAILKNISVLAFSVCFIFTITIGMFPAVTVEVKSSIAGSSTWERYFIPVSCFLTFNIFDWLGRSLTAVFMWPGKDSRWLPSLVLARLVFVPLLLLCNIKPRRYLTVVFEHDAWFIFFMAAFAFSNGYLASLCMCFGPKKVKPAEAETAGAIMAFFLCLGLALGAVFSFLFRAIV
The assay is described as follows: ENT1 binding assay (competition with Sahenta-DY647 on JAR cells). As to conditions: Binding Assay IC50, competition with SAHENTA-DY647 binding; IC50 categorized. The gist of the method: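 Whole-cell competition on JAR cells (native ENT1): 50,000 cells pre-incubated 30 min at 4 °C with compound in HBSS/10 mM Hepes/0.1% BSA, then 100 nM Sahenta-DY647 added for 30 min at 4 °C. After washing, fluorescence (Ex 630/Em 670 nm) read; IC50 from sigmoidal fit, averaged as pIC50.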
In the case of `C[C@H]1O[C@@H](n2cnc3c(COc4ccc(C#N)cc4)ncnc32)[C@H](O)[C@@H]1O` [Compound 280], the pIC50 (usually the negative decadic logarithm of the IC50, by convention in mol/L) was < 6.30.

The same assay, now with this note: competition with SAHENTA-DY647 binding; IC50 categorized; read-out: Binding Assay IC50.
Turning to `C[C@H]1O[C@@H](n2cnc3c(OC4CCc5ccc([N+](=O)[O-])cc5C4)ncnc32)[C@H](O)[C@@H]1O` (some centres unmarked) [Compound 228], the negative logarithm of the IC50 (pIC50) was < 6.30. For the molecule `O=[N+]([O-])c1ccc(COc2ncnc3c2ncn3[C@@H]2O[C@H](CCO)[C@@H](O)[C@H]2O)cc1` [Compound 229], the pIC50 is < 6.30. The same measure, in the same setting: under `COc1ccc(COc2ncnc3c2ncn3[C@@H]2O[C@H](C)[C@@H](O)[C@H]2O)cc1C(F)(F)F` [Compound 230] stands < 6.30; under `COc1ccc(COc2ncnc3c2ncn3[C@@H]2O[C@H](C)[C@@H](O)[C@H]2O)cc1` [Compound 231], < 6.30. The same measure, in the same setting: in the case of `C[C@H]1O[C@@H](n2cnc3c(OCCc4ccc(C#N)c(F)c4)ncnc32)[C@H](O)[C@@H]1O` [Compound 232] it was < 6.30. Same read-out and setting: under `C[C@H]1OC(n2cnc3c(COc4ccc(OC(F)F)cc4)ncnc32)[C@H](O)[C@@H]1O` (some centres unmarked) [Compound 233] stands < 6.30; under `C[C@H]1O[C@@H](n2cnc3c(OCc4ccc(OC(F)(F)F)c(Cl)c4)ncnc32)[C@H](O)[C@@H]1O` [Compound 234], < 6.30; under `Cc1cc(Cl)ccc1COc1ncnc2c1ncn2[C@@H]1O[C@H](C)[C@@H](O)[C@H]1O` [Compound 235], < 6.30. Take `C[C@H]1O[C@@H](n2cnc3c(OCc4ccc(OCCF)cc4)ncnc32)[C@H](O)[C@@H]1O` [Compound 236]: the pIC50 was < 6.30. On to `C[C@H]1O[C@H](n2cnc3c(OCc4ccc(C#N)c(F)c4)nc(Cl)nc32)[C@H](O)[C@@H]1O` [Compound 237], for which the negative-log IC50 (pIC50) is < 6.30. The same measure, in the same setting: in the case of `C[C@H]1O[C@@H](n2cnc3c(OCc4ccc(F)c(F)c4F)ncnc32)[C@H](O)[C@@H]1O` [Compound 238] it was < 6.30; in that of `O=[N+]([O-])c1ccc(COc2ncnc3c2ncn3[C@@H]2O[C@H](COCCN3CCCC3)[C@@H](O)[C@H]2O)cc1` [Compound 240], < 6.30. Turning to `C[C@H]1O[C@@H](n2cnc3c(OCCc4ccc(OC(F)(F)F)cc4)ncnc32)[C@H](O)[C@@H]1O` [Compound 241], the negative logarithm of the IC50 (pIC50) is < 6.30. Same read-out and setting: in the case of `C[C@H]1O[C@@H](n2cnc3c(SCc4ccccc4S(N)(=O)=O)ncnc32)[C@H](O)[C@@H]1O` [Compound 242] it was < 6.30; in that of `NC(=O)[C@H]1O[C@@H](n2cnc3c(SCc4ccc([N+](=O)[O-])cc4)ncnc32)[C@H](O)[C@@H]1O` [Compound 243], < 6.30. Same read-out and setting: under `C[C@H]1O[C@@H](n2cnc3c(OCc4ccc(C#N)cc4)nc(Cl)nc32)[C@H](O)[C@@H]1O` [Compound 244] stands < 6.30.

`CC(=O)c1ccc(COc2ncnc3c2ncn3[C@@H]2O[C@H](C)[C@@H](O)[C@H]2O)cc1` [Compound 245]: the pIC50 was < 6.30.

Take `C[C@H]1O[C@@H](n2cnc3c(OCc4cccc(OC(F)F)c4)ncnc32)[C@H](O)[C@@H]1O` [Compound 246]: the pIC50 is < 6.30. As to `C[C@H]1O[C@@H](n2c(O)nc3c(OCc4ccc([N+](=O)[O-])cc4)ncnc32)[C@H](O)[C@@H]1O` [Compound 247], the negative logarithm of the IC50 (pIC50) was < 6.30. On to `C[C@H]1O[C@@H](n2cnc3c(OCCc4ccc([N+](=O)[O-])nc4)ncnc32)[C@H](O)[C@@H]1O` [Compound 248], for which the negative-log IC50 (pIC50) is < 6.30. On the same count and under the same terms, under `C[C@H]1O[C@@H](n2cnc3c(OCCc4ccc(C#N)cc4)ncnc32)[C@H](O)[C@@H]1O` [Compound 249] stands < 6.30. Take `C[C@H]1O[C@@H](n2cnc3c(OCc4ccc(Cl)c(C(F)(F)F)c4)ncnc32)[C@H](O)[C@@H]1O` [Compound 250]: the pIC50 is < 6.30. In the case of `C[C@H]1O[C@@H](n2cnc3c(SCc4cncc(C#N)c4)ncnc32)[C@H](O)[C@@H]1O` [Compound 251], the pIC50 is < 6.30.

As for `C[C@H]1O[C@@H](n2cnc3c(NCCc4ccc([N+](=O)[O-])cc4)ncnc32)[C@H](O)[C@@H]1O` [Compound 252], the pIC50 is < 6.30. On to `C[C@H]1O[C@@H](n2cnc3c(C(=O)N4CCCC4c4ccccc4)ncnc32)[C@H](O)[C@@H]1O` (some centres unmarked) [Compound 253], for which the pIC50 is < 6.30. Still for that read-out and setting: under `C[C@H]1O[C@@H](n2cnc3c(NCc4ccc(Cl)c(Cl)c4)ncnc32)[C@H](O)[C@@H]1O` [Compound 254] stands < 6.30; under `C[C@H]1O[C@@H](n2cnc3c(NCc4ccc(-c5ncon5)cc4)ncnc32)[C@H](O)[C@@H]1O` [Compound 255], < 6.30; under `C[C@H]1O[C@@H](n2cnc3c(OCc4ccc([N+](=O)[O-])cc4)nc(O)nc32)[C@H](O)[C@@H]1O` [Compound 256], < 6.30.

For the molecule `C[C@H]1O[C@@H](n2cnc3c(SCc4ccc(C#N)cn4)ncnc32)[C@H](O)[C@@H]1O` [Compound 257], the pIC50 is < 6.30.

`C[C@H]1OC(n2cnc3c(COc4ccc(C#N)c(F)c4)ncnc32)[C@H](O)[C@@H]1O` (some centres unmarked) [Compound 258]: the pIC50 is < 6.30. Same read-out and setting: in the case of `Cc1nc(OCc2ccc([N+](=O)[O-])cc2)c2ncn([C@@H]3O[C@H](C)[C@@H](O)[C@H]3O)c2n1` [Compound 259] it was < 6.30; in that of `C[C@H]1O[C@@H](n2cnc3c(OCc4c(F)cc(F)cc4F)ncnc32)[C@H](O)[C@@H]1O` [Compound 260], < 6.30; in that of `C[C@H]1O[C@@H](n2cnc3c(NCc4ccc(NS(C)(=O)=O)cc4)ncnc32)[C@H](O)[C@@H]1O` [Compound 261], < 6.30. The same measure, in the same setting: under `CC(C)(O)[C@H]1O[C@@H](n2cnc3c(SCc4ccc(OC(F)(F)F)cc4)ncnc32)[C@H](O)[C@@H]1O` [Compound 262] stands < 6.30.

On to `CC(Oc1ncnc2c1ncn2[C@@H]1O[C@H](C)[C@@H](O)[C@H]1O)c1ccc(OC(F)F)cc1` (some centres unmarked) [Compound 263], for which the pIC50 was < 6.30. On the same count and under the same terms, under `CNc1nc2c(OCc3ccccc3)ncnc2n1[C@@H]1O[C@H](C)[C@@H](O)[C@H]1O` [Compound 264] stands < 6.30. Regarding `C[C@H]1O[C@@H](n2cnc3c(OCCc4cnc(C#N)c(F)c4)ncnc32)[C@H](O)[C@@H]1O` [Compound 265], the pIC50 is < 6.30. Same read-out and setting: under `C[C@H]1O[C@@H](n2cnc3c(C(=O)N4CC(c5ccc([N+](=O)[O-])cc5)C4)ncnc32)[C@H](O)[C@@H]1O` [Compound 266] stands < 6.30; under `C[C@H]1O[C@@H](n2cnc3c(OCCc4ccc(C(F)F)cc4)ncnc32)[C@H](O)[C@@H]1O` [Compound 267], < 6.30.

Consider `C[C@H]1O[C@@H](n2cnc3c(OCCc4cc(F)c(Cl)c(F)c4)ncnc32)[C@H](O)[C@@H]1O` [Compound 268], for which the pIC50 was < 6.30. In the case of `C[C@H]1O[C@@H](n2cnc3c(OCc4c(F)cc(C#N)cc4F)ncnc32)[C@H](O)[C@@H]1O` [Compound 269], the negative logarithm of the IC50 (pIC50) is < 6.30.

As for `C[C@H]1O[C@@H](n2cnc3c(SCc4ccc(C(F)(F)F)nc4)ncnc32)[C@H](O)[C@@H]1O` [Compound 270], the negative-log IC50 (pIC50) is < 6.30.

Take `O=C(NCCO)[C@H]1O[C@@H](n2cnc3c(OCc4ccc([N+](=O)[O-])cc4)ncnc32)[C@H](O)[C@@H]1O` [Compound 271]: the pIC50 is < 6.30. Turning to `Cc1cc(CSc2ncnc3c2ncn3[C@@H]2O[C@H](C)[C@@H](O)[C@H]2O)cc(C)c1F` [Compound 272], the negative-log IC50 (pIC50) is < 6.30.

Take `C[C@H]1O[C@@H](n2cnc3c(SCc4cccc(S(N)(=O)=O)c4)ncnc32)[C@H](O)[C@@H]1O` [Compound 273]: the pIC50 is < 6.30.

As for `C[C@H]1O[C@@H](n2cnc3c(OCc4cccc(C(F)(F)F)c4)ncnc32)[C@H](O)[C@@H]1O` [Compound 274], the negative-log IC50 (pIC50) is < 6.30. Consider `C[C@H]1O[C@@H](n2cnc3c(OCCc4cccc([N+](=O)[O-])c4)ncnc32)[C@H](O)[C@@H]1O` [Compound 275], for which the pIC50 is < 6.30. The same measure, in the same setting: under `C[C@H]1O[C@@H](n2cnc3c(OCCc4ccc(OC(F)F)cc4)ncnc32)[C@H](O)[C@@H]1O` [Compound 276] stands < 6.30.

Regarding `C[C@H]1O[C@@H](n2cnc3c(NCc4ccc(S(C)(=O)=O)cc4)ncnc32)[C@H](O)[C@@H]1O` [Compound 277], the negative-log IC50 (pIC50) was < 6.30. Still for that read-out and setting: in the case of `C[C@H]1O[C@@H](n2cnc3c(OCCc4ccc(OC(F)F)nc4)ncnc32)[C@H](O)[C@@H]1O` [Compound 278] it was < 6.30; in that of `CNC(=O)[C@H]1O[C@@H](n2cnc3c(OCc4ccc([N+](=O)[O-])cc4)ncnc32)[C@H](O)[C@@H]1O` [Compound 279], < 6.30; in that of `C[C@H]1O[C@@H](n2cnc3c(OCc4ccc([N+](=O)[O-])cn4)ncnc32)[C@H](O)[C@@H]1O` [Compound 281], < 6.30.

Turning to `C[C@H]1O[C@@H](n2cnc3c(NCc4ccc(C(F)(F)F)c(Cl)c4)ncnc32)[C@H](O)[C@@H]1O` [Compound 282], the pIC50 was < 6.30. Same read-out and setting: in the case of `COc1nc(OCc2ccc([N+](=O)[O-])cc2)c2ncn([C@@H]3O[C@H](C)[C@@H](O)[C@H]3O)c2n1` [Compound 283] it was < 6.30. On the same count and under the same terms, in the case of `C[C@H]1O[C@@H](n2cnc3c(OCc4cc(F)c(C#N)c(F)c4)nc(Cl)nc32)[C@H](O)[C@@H]1O` [Compound 284] it was < 6.30.
